We go through 2 compounds from US12702307B2, “Non-invasive stress imaging methods of diagnosing peripheral arterial disease via dynamic pet” (Jubilant DraxImage inc., priority 2021, dated 2026).

Series [1] has as its system calf muscles, hindlimb ischemia (HLI). The series can be described thus: Rb-82 PET/CT of calf muscles in rabbit hindlimb ischemia at rest and cuff-induced hyperemia. Type of series: in vivo, rabbits. Particulars: for SMP SUV: cuff-induced hyperemia (CIH); for Mean Rb-82 SUV: rest, 1.5 mCi. The method, then: Methods: Hindlimb ischemia (HLI) was created in rabbits (n=8) by right femoral ligations and Rb-82 PET/CT imaging performed on digital PET scanner (Vision600, Siemens) at either 2 or 4 weeks post-ligation. Rabbits were injected with Rb-82 (1.5 mCi) with constant activity infusion over 30 seconds at rest and 30 seconds following hyperemia induced by 3 minutes cuff occlusion of thighs bilaterally. PET images were acquired with shuttling scanner from heart to feet using 8 passes over 7 minutes. Summed images were created excluding the first 90 seconds post injection. Calf muscles were segmented based on CT images. Mean Rb-82 standardized uptake values (SUVs) were calculated for calf muscles—gastrocnemius (GC), plantaris (PLA), soleus (SOL), tibialis anterior (TA), extensor digitorum longus (EDL), peroneus (PER)—for both ischemic (I) and non-ischemic (NI) limbs. CT angiography was performed, and tissues analyzed for fiber type and capillary density.

In series [2] the test system is occluded tissue / low limb. The experiment in a line: Dynamic Rb-82 PET, tracer flux K1 in lower extremity, human study. It counts as in vivo. Particulars: for average K1 value: diabetic subject, 3D region of interest on the low limb, parametric imaging. As to the method: CT scan was performed on the subject for standard attenuation correction, multi-energy low dose contrast CT imaging was performed to define lower extremity vasculature and attenuation correction was performed using virtual non-contrast images; 518±37 MBq Rb-82 is administered to the subject using automated generation and infusion system agent; single bed PET acquisition of the heart for about 2-7 minutes is performed; single bed centered PET acquisition at abdominal aorta of the subject for about 1-3 minutes is performed; continuous bed motion PET scan of the subject between abdominal aorta and legs is performed; input function was calculated from abdominal artery; Tracer flux (K1) into the tissue or region of interest is calculated as volume per unit time per unit volume of tissue. […] FIG. 5 represents the image acquisition protocol during human study. FIG. 7 represents the muscle volumes in human studies.

For series [3], the system named is occluded tissue (lower extremity). The experiment in a line: Dynamic Rb-82 PET, tracer flux K1 in lower extremity, animal study. Type of series: in vivo, porcine pigs. Particulars: occluded tissue in comparison to non-occluded tissue; 518±37 MBq Rb-82. As to the method: CT scan was performed on the subject for standard attenuation correction, and multi-energy low dose contrast CT imaging was performed to define the lower extremity vasculature and attenuation correction was performed using virtual non-contrast images; 518±37 MBq Rb-82 was administered to the subject using automated generation and infusion system; single bed PET acquisition of the heart for about 1-10 minutes, was performed; single bed PET acquisition of the leg for about 1-10 minutes was performed; single bed centered PET acquisition at abdominal aorta of the subject for about 1-3 minutes was performed; continuous bed motion PET scan of the subject between abdominal aorta and legs was performed; tracer flux (K1) into the tissue or region of interest is calculated as volume per unit time per unit volume of tissue. […] It was validated by injecting microspheres over 30 seconds during the PET imaging at either rest or stress conditions for each animal and blood flow was measured in both gastrocnemius and soleus muscles. FIG. 4 represents the sample animal K1 parametric image with AA as the input function. FIG. 6 represents the muscle volumes in animal studies.

A further series relates to calf muscles. The series can be described thus: Rb PET/CT calf muscle perfusion at rest and reactive hyperemia in controls and PAD patients. Type of series: in vivo, human. As to the method: Methods: Rb PET/CT imaging (Vision600, Siemens) was performed in healthy controls (n=6) and PAD patients (n=6). Rb (20-30 mCi) was delivered using a constant activity infusion over […], with PET images acquired by shuttling scanner from either heart (Protocol 1) or abdomen (Protocol 2) to feet using 8-11 passes over 7 minutes. Abdominal protocol was repeated 30 seconds after RH induced by 5 minutes bilateral thigh cuff occlusion. Mean Rb standardized uptake values (SUV), excluding the input function, were determined for calf muscles segmented in both legs using hybrid CT images including: gastrocnemius (GC), soleus (SOL), tibialis anterior (TA), extensor digitorum longus (EDL), and peroneus (PER) (FIG. 10A).

Take Rb-82 chloride: the “SMP SUV” value in series [1] (ischemic (I) limb) is on record as 1.02±0.32; in series [1] (non-ischemic (NI) limb), 1.14±0.34. In addition, the “Mean Rb-82 SUV” value in series [1] (ischemic (I) limb across calf muscles) was 0.55±0.18; in series [1] (non-ischemic (NI) limb across calf muscles), 0.51±0.16. The “average K1 value” in series [2] was 0.032. The “Average K1 (tracer flux)” value in series [2] (occluded tissue in comparison to non-occluded tissue, 518±37 MBq Rb-82) is on record as “less than 0.05 ml/min/cm^3”; in series [3], “less than 0.05 ml/min/cm^3”. Besides, the “Mean Rb SUV” value in the series with calf muscles (reactive hyperemia (RH), PAD patients, gastrocnemius (GC)) worked out at 0.96±0.58; in the series with calf muscles (reactive hyperemia (RH), PAD patients, soleus (SOL)), 1.08±0.76; with calf muscles (reactive hyperemia (RH), controls, gastrocnemius (GC)) it was 0.38±0.18; with calf muscles (reactive hyperemia (RH), controls, soleus (SOL)), 0.34±0.14; in the series with calf muscles (rest, PAD subjects, gastrocnemius (GC)) it was 0.50±0.11; in the series on calf muscles (rest, PAD subjects, soleus (SOL)), 0.66±0.20. Also, the “Mean Rb SUV” value in the series with calf muscles (rest, controls, gastrocnemius (GC)) is reported as 0.44±0.11; with calf muscles (rest, controls, soleus (SOL)), 0.52±0.12.

As to `[15OH2]` [^15O-water], the “average K1 value” in series [2] came out at 0.039.
